Test results published in patent US20230348495A1, “A COMPOUND HAVING INHIBITORY ACTIVITY AGAINST KRAS G12D MUTATION” (TAIHO PHARMACEUTICAL CO., LTD., priority 2019, published 2023).

Experiments:
[1] = system: KRAS-G12D mutant cell line (A-427); experiment: Growth inhibition activity on KRAS-G12D mutant cell line (A-427), CellTiter-Glo 3D; assay type: cell-based; conditions: Homo sapiens, 72 h, A-427 cells, 3-day culture with compound, read-out: A427 CTX IC50
Procedure: Test Example 2: A measurement test of growth inhibition activity on KRAS-G12D mutant cell line (A-427) (in vitro) A-427 cells (ATCC, Cat #: HTB-53), which are a KRAS-G12D mutant human lung cancer cell line, were suspended in a 10% fetal bovine serum-containing E-MEM medium (manufactured by Fujifilm Wako Pure Chemical Corporation). The cell suspension was seeded into each well of a 384-well U bottom microplate and cultured in an incubator containing 5% CO2 gas at 37° C. for 1 day.
The compound of the present invention was dissolved in DMSO, and the test compound was diluted with DMSO to give a concentration 500 times the final concentration. The solution of the test compound in DMSO was diluted with the medium used for suspending cells and added to each well of the cell-culture plate to give a DMSO final concentration of 0.2%, followed by culture in an incubator containing 5% CO2 gas at 37° C. for another 3 days. The cell count after a 3-day culture in the presence of the compound was measured using CellTiter-Glo 3D Reagent (manufactured by Promega Corporation).
All wells were added with CellTiter-Glo 3D Reagent and mixed for 10 minutes. 30 minutes after mixing, luminescence was measured by a plate reader. The growth inhibition rate was calculated from the following equation, and the concentration of the test compound at which 50% inhibition was achieved (IC50 (μM)) was determined.
Growth Inhibition Rate(%)=(C−T)/(C)×100
T: the emission intensity in a well into which a test compound was added.
C: the emission intensity in a well into which a test compound was not added.

KRAS G12D = KRAS G12D (Homo sapiens (Human), UniProt P01116, G12D); experiment: Inhibitory activity on KRAS G12D nucleotide (GDP-GTP) exchange reaction in vitro (SOS1-dependent, BODIPY FL GDP); assay type: biochemical; conditions: BODIPY FL GDP-bound KRAS G12D, compound 25° C. 1 hour, then SOS1 and GMPPNP 30 minutes
Source text: Test Example 1: Evaluation of inhibitory activity of compounds on KRAS G12D nucleotide (GDP-GTP) exchange reaction in vitro
Recombinant KRAS G12D (conjugated N-terminus His6-tag, TEV protease cleavage site and KRAS G12D residues 1-169 (SEQ ID NO: 1), prepared by the method described as below) and cleaved recombinant SOS1 (residues 564-1049(SEQ ID NO: 2), prepared by the method as below) proteins were expressed in E. coli and purified by affinity chromatography.
To prepare the recombinant KRAS G12D, the codon-optimized DNA sequence for the recombinant KRAS G12D (conjugated N-terminus His6-tag, TEV protease cleavage site and KRAS G12D residues 1-169 (SEQ ID NO: 3))was synthesized by GeneArt Technology (Life Technologies, Carlsbad, CA, US). The construct was subcloned into the expression vector pET28a and transformed into Escherichia coli BL21 (DE3) strains (Novagen, Madison, WI, US).
The transformed strain was cultivated in 2 L Luria Broth medium with 25 μg/mL kanamycin at a temperature of 37° C. to a density of 0.6 (OD600), then induced for expression with […] IPTG and further cultivated for 4 h. The cell pellet was resuspended in ice-cold lysis buffer containing 50 mM Tris-HCl (pH 7.5), 200 mM NaCl, and 100 μM TCEP (tris(2-carboxyethyl)phosphine).
After sonication, the disrupted debris was removed by centrifugation. The supernatant was applied on to Ni-NTA affinity gels, and the recombinant human KRAS (G12D) eluted fraction was collected. The buffer of the collected fraction was exchanged to the buffer containing 50 mM Tris-HCl (pH 7.5), 200 mM NaCl, 10% Glycerol, and 5 mM DTT by PD-10 column (GE-Healthcare, Chicago, IL, US).
To prepare the cleaved recombinant SOS1, the codon optimized DNA sequences for the recombinant SOS1 (residues 564-1049 with a conjugated N-terminus His6-tag and TEV protease cleavage site (SEQ ID NO: 4)) was synthesized by GeneArt Technology (Life Technologies). The construct was subcloned into the expression vector pET28a and transformed into Escherichia coli BL21 (DE3) strains (Novagen, Madison, WI, USA).
The transformed strain was cultivated in 2 L Terrific Broth medium with 25 μg/mL kanamycin at a temperature of 37° C. to a density of 0.8 (OD600), then shifted to a temperature of 16° C., induced for expression with […] IPTG, and further cultivated for 16 h. The cell pellet was resuspended in ice-cold lysis buffer containing 50 mM Tris-HCl (pH 7.5), 200 mM NaCl, and 100 μM TCEP.
After sonication, the disrupted debris was removed by centrifugation. The supernatant was applied on to Ni-NTA affinity gels, and the recombinant human SOS1 eluted fraction was collected. Then, His6-tagged TEV protease was added to the collected fraction, dialyzed with the ice-cold lysis buffer for 16 h at a temperature of 4° C., and applied on to Ni-NTA affinity gels. The flow-through fraction containing the tag-cleavaged recombinant human SOS1 was collected. The buffer of the collected fraction was exchanged to the buffer containing 50 mM Tris-HCl (pH 7.5), 200 mM NaCl, 10% Glycerol, and 5 mM DTT by PD-10 column (GE-Healthcare).
To prepare BODIPY FL (fluorescent dye) GDP-bound KRAS G12D protein, 50 μM KRAS G12D protein was incubated with 0.5 mM BODIPY FL GDP in a loading buffer (20 mM Tris-HCl (pH 7.5), 50 mM NaCl, 1 mM DTT and 2.5 mM EDTA) for 1 hour on ice. After the incubation, MgCl2 was added to a final concentration of 10 mM, followed by incubation at room temperature for 30 minutes.
The mixture was allowed to pass through a NAP-5 column to remove free nucleotides and purified BODIPY FL GDP-bound KRAS G12D protein was used for compound evaluation.
For the measurement of the inhibitory activity of compounds on GDP-GTP exchange rate of recombinant KRAS G12D, BODIPY FL GDP-bound KRAS G12D protein was incubated with various concentrations of compound in a reaction buffer (20 mM Tris-HCl (pH 7.5), 100 mM NaCl, 1 mM MgCl2, 2 mM DTT, 0.1% Tween 20) at 25° C. for 1 hour. […]

KRAS G12D, sequence (P01116 other isoform, or with tags, fused parts or gaps G12D (already in the parent)): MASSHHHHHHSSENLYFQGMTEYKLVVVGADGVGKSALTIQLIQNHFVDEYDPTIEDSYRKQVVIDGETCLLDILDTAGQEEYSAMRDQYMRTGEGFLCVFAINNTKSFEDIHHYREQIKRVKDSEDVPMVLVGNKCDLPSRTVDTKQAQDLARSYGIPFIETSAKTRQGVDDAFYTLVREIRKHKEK

| Compound | IC50 [1] [nM] | IC50 (KRAS G12D) [nM] |
| --- | --- | --- |
| Cc1cccc2cc(O)cc(N3CCc4c(nc(OCC5(CN6CC[C@@H](F)C6)CC5)nc4N4CC5CCC(C4)N5)C3)c12 [Example 5, 4-(4-(3,8-diazabicyclo[3.2.1]octan-3-yl)-2-((1-(((R)-3-fluoropyrrolidin-1-yl)methyl)cyclopropyl)methoxy)-5,8-dihydropyrido[3,4-d]pyrimidin-7(6H)-yl)-5-methylnaphthalen-2-ol] | 1170 | 6.2 |
| C#Cc1cccc2cc(O)cc(C3Cc4nc(OCC5(CN(C)C)CC5)nc(N5CC6CCC(C5)N6)c4CO3)c12 (stereo not shown) [Example 23, 4-(4-(3,8-diazabicyclo[3.2.1]octan-3-yl)-2-((1-((dimethylamino)methyl)cyclopropyl)methoxy)-7,8-dihydro-5H-pyrano[4,3-d]pyrimidin-7-yl)-5-ethynylnaphthalen-2-ol] | 1470 | 3 |
| O=C(c1cc(O)cc2cccc(I)c12)N1Cc2nc(OCC3(CN4CCOCC4)CC3)nc(N3CC4CCC(C3)N4)c2C1 [Example 13, (4-(3,8-diazabicyclo[3.2.1]octan-3-yl)-2-((1-(morpholinomethyl)cyclopropyl)methoxy)-5,7-dihydro-6H-pyrrolo[3,4-d]pyrimidin-6-yl) (3-hydroxy-8-iodonaphthalen-1-yl)methanone] | 8550 | 5.5 |
| CN1C[C@H](F)C[C@H]1COc1nc2c(c(N3CC4CCC(C3)N4)n1)CCN(c1cc(O)cc3cccc(Br)c13)C2 [Example 27, 4-(4-(3,8-diazabicyclo[3.2.1]octan-3-yl)-2-(((2S,4R)-4-fluoro-1-methylpyrrolidin-2-yl)methoxy)-5,8-dihydropyrido[3,4-d]pyrimidin-7(6H)-yl)-5-bromonaphthalen-2-ol] | 650 | 18.5 |
| Cc1cccc2cc(O)cc(N3CCc4c(nc(OCC5(CN(C)C)CC5)nc4N4CC5CCC(C4)N5)C3)c12 [Example 4, 4-(4-(3,8-diazabicyclo[3.2.1]octan-3-yl)-2-((1-((dimethylamino)methyl)cyclopropyl)methoxy)-5,8-dihydropyrido[3,4-d]pyrimidin-7(6H)-yl)-5-methylnaphthalen-2-ol] | 1170 | 1.5 |
| CO[C@@H]1C[C@@H](COc2nc3c(c(N4CC5CCC(C4)N5)n2)CCN(c2cc(O)cc4cccc(Br)c24)C3)N(C)C1 [Example 32, 4-(4-(3,8-diazabicyclo[3.2.1]octan-3-yl)-2-(((2S,4R)-4-methoxy-1-methylpyrrolidin-2-yl)methoxy)-5,8-dihydropyrido[3,4-d]pyrimidin-7(6H)-yl)-5-bromonaphthalen-2-ol] | 1080 | 3.2 |
| C#Cc1cccc2cccc(C3CCc4c(nc(OCC5(CN(C)C)CC5)nc4N4CC5CCC(C4)N5)C3)c12 (stereo not shown) [Example 24, 1-(1-(((4-(3,8-diazabicyclo[3.2.1]octan-3-yl)-7-(8-ethynylnaphthalen-1-yl)-5,6,7,8-tetrahydroquinazolin-2-yl)oxy)methyl)cyclopropyl)-N,N-dimethylmethanamine] | 1220 | 17 |
| Oc1cc(N2CCc3c(nc(OCC4(CN5CC[C@@H](F)C5)CC4)nc3N3CC4CCC(C3)N4)C2)c2c(Br)cccc2c1 [Example 2, 4-(4-(3,8-diazabicyclo[3.2.1]octan-3-yl)-2-((1-(((R)-3-fluoropyrrolidin-1-yl)methyl)cyclopropyl)methoxy)-5,8-dihydropyrido[3,4-d]pyrimidin-7(6H)-yl)-5-bromonaphthalen-2-ol] | 540 | 1.5 |
